# Laboratory results: US9238033B2, “Pharmaceutical composition containing KW-6002 and fluoxetine or paroxentine” (Kyowa Hakko Kirin Co., Ltd., priority 2003, dated 2016)
# Where a name gives a salt, the structure may show the parent alone.
# Assays:
# ICR male mice = experiment: Mouse tail suspension method (animal model of depression); type: in vivo; conditions: for Duration of immobility (sec) Mean value ± Standard error: last 4 min of 6 min test, Not Significant (Student's t test); for Rate of change of duration of immobility to solvent control group (%): solvent control = 100%
# Experimental: The test was carried out with reference to the method of Steru et al., [Psychopharmacol., 85, 367-370 (1985)], which is an animal model of depression.
# Experiment was conducted using 10 ICR male mice (weighing 20 to 35 g, Nihon SLC Co., Ltd) per one group.
# An acrylic or metallic bat was fixed horizontally such that height of about 60 cm from the floor face is provided.
# The mouse was suspended at a site of about 2 cm from the tip of the tail, from the bar for a period of 6 minutes. Duration of immobility during the last 4 minutes of 6 minutes test was measured (significance test: Student's t test). For fixing the mouse, an adhesive tape was used.
# (§1) The antidepressant drug and Compound (I) were suspended in distilled water for injection (manufactured by Otsuka Pharmaceutical Co., Ltd.) containing 0.5% MC (methyl cellulose), respectively, for use in the test. Time point of administration of the antidepressant drug was predetermined such that the peak of onset of activity by the antidepressant drug overlaps with the peak of onset of activity by Compound (I). According to the predetermined time, the suspension containing the antidepressant drug was orally administered to a group administered the antidepressant drug alone or a group administered the antidepressant drug and Compound (I) in combination (0.1 mL per 10 g of the mouse body weight). Further, the suspension containing Compound (I) was orally administered to the group administered the antidepressant drug and Compound (I) in combination, 1 hour before the test (0.1 mL per 1.0 g of the mouse body weight). A solution without containing a test compound [distilled water for injection (manufactured by Otsuka Pharmaceutical Co., Ltd.) containing 0.5% MC] and the suspension containing Compound (I) were orally administered to a solvent control group and to a group administered Compound (I) alone, 1 hour before the test, respectively (0.1 mL per 10 g of the mouse body weight).
# (§2) Effect obtained by combining Compound (I) and the antidepressant drug was evaluated according to the following index.
# The duration of Immobility in the solvent control group was assumed to be 100%, and each rate of change (%) of the duration of immobility in the above administration group to the duration of immobility in the solvent control group was calculated, and was compared. The duration of immobility in each administration group, and the rate of change (%) of the duration of immobility are shown in Table 2 and Table 3.
# ddY male mice = experiment: Forced swimming method in mice (animal model of depression); type: in vivo; conditions: for Duration of immobility (sec) Mean value ± Standard error: last 4 min of 6 min test, Not Significant (Dunnett test); for Rate of change of duration of immobility to solvent control group (%): solvent control = 100%
# Experimental: The test was carried out with reference to the method of Porsolt et al., [Arch. Int. Pharmacodyn. Ther., 229, 327-336 (1977)], which is an animal model of depression.
# Experiment was conducted using 10 ddY male mice (weighing 20 to 35 g, Nihon SLC Co., Ltd) per one group.
# An acrylic transparent cylinder having a diameter of 10 cm and a height of 25 cm was filled with water having a temperature of about 24° C. Height from the bottom of the cylinder to the surface of the water was adjusted to be about 9 cm.
# The mice were forced to swim individually for a period of 6 minutes, the total duration of immobility during the last 4 minutes of 6 minutes test was measured (significance test: Dunnett test).
# as §1, with “10” for “1.0”
# as §2
# The duration of Immobility in the solvent control group was assumed to be 100%, and each rate of change (%) of the duration of, immobility in the above administration group to the duration of immobility in the solvent control group was calculated, and was compared. The duration of immobility in each administration group, and the rate of change (%) of the duration of immobility are shown in Table 1.
# [1] = Table 2, Compound (I) 0.04 mg/kg orally 1 hour before test
# [2] = Table 3, Compound (I) 0.04 mg/kg orally 1 hour before test
# [3] = Compound (I) 0.08 mg/kg orally 1 hour before test
# [4] = Table 3, fluoxetine hydrochloride 10.00 mg/kg orally
# [5] = Table 2, paroxetine hydrochloride hydrate 2.50 mg/kg orally
# [6] = Venlafaxine hydrochloride 5.00 mg/kg orally
compound,measurement,setting,value
"CCn1c(=O)c2c(nc(/C=C/c3ccc(OC)c(OC)c3)n2C)n(CC)c1=O [Compound (I), (E)-8-(3,4-dimethoxystyryl)-1,3-diethyl-7-methyl-3,7-dihydro-1H-purine-2,6-dione]",Duration of immobility (sec) Mean value ± Standard error,ICR male mice; [1],70.1 ± 19.1 s
same,Rate of change of duration of immobility to solvent control group (%),ICR male mice; [1],−14%
same,Duration of immobility (sec) Mean value ± Standard error,ICR male mice; [2],87.9 ± 14.9 s
same,Rate of change of duration of immobility to solvent control group (%),ICR male mice; [2],−26%
same,Duration of immobility (sec) Mean value ± Standard error,ddY male mice; [3],155.6 ± 13.3 s
same,Rate of change of duration of immobility to solvent control group (%),ddY male mice; [3],−21%
CNCCC(Oc1ccc(C(F)(F)F)cc1)c1ccccc1 (stereo not drawn) [Fluoxetine hydrochloride],Duration of immobility (sec) Mean value ± Standard error,ICR male mice; [4],85.7 ± 18.9 s
same,Rate of change of duration of immobility to solvent control group (%),ICR male mice; [4],−16%
Fc1ccc([C@@H]2CCNC[C@H]2COc2ccc3c(c2)OCO3)cc1 [Paroxetine hydrochloride hydrate],Duration of immobility (sec) Mean value ± Standard error,ICR male mice; [5],79.6 ± 16.6 s
same,Rate of change of duration of immobility to solvent control group (%),ICR male mice; [5],−2%
COc1ccc(C(CN(C)C)C2(O)CCCCC2)cc1 (stereo not drawn) [Venlafaxine hydrochloride],Duration of immobility (sec) Mean value ± Standard error,ddY male mice; [6],173.1 ± 20.7 s
same,Rate of change of duration of immobility to solvent control group (%),ddY male mice; [6],−12%
